# Laboratory results from US12428369B2, “Crystal form of aromatic vinyl derivatives, and preparation method therefor and use thereof” (GUANGZHOU MAXINOVEL PHARMACEUTICALS CO., LTD., priority 2020, dated 2025).
# What was measured:
# [1] = Dynamic vapor sorption (DVS) analysis; format: physicochemical; conditions: 25° C.; for hygroscopicity: assessment in words
# Procedure: The hygroscopic characteristics of the sample were tested when the humidity changed from 0% RH to 95% RH, and the dehumidifying characteristics of the sample were tested when the humidity changed from 95% RH to 0% RH. The humidity change in each step size was 5% RH, the equilibrium standard was that the weight change rate within 10 min was less than 0.01%/min, and the longest equilibrium time was 2 hours.
# The hygroscopic characteristics of the sample were tested when the humidity changed from 0% RH to 95% RH, and the dehumidifying characteristics of the sample were tested when the humidity changed from 95% RH to 0% RH. The humidity change in each step size was 5% RH, the equilibrium standard was that the weight change rate within 5 min was less than 0.01%/min, and the longest equilibrium time was 2 hours.
# [2] = Equilibrium solubility and dissolution rate in water, SGF, FaSSIF, FeSSIF; format: physicochemical; conditions: for Solubility: 37° C.; for solubility at 0.5 h / solubility at 2 h / solubility at 24 h: 37 °C, thermodynamic from solid
# Procedure: To further study whether the equilibrium solubility and dissolution rate of crystal forms A, B and C are different in pure water and physiological related media in vivo, the equilibrium solubility and dissolution rate of […] crystal forms in water, simulated gastric fluid (SGF), fasted-state simulated intestinal fluid (FaSSIF) and fed state simulated intestinal fluid (FeSSIF) were tested respectively.
# [3] = Solid-state stability: content and related substances by HPLC; format: physicochemical
# Procedure: (§1) The samples of crystal forms A, B, and C were weighed and added to a 20 mL colorless transparent glass bottle, respectively, and the sample bottles were respectively placed under the corresponding influencing factors and acceleration conditions (the sample bottles under humidity conditions were sealed with tin foil and placed with holes, and the other samples were covered tightly and placed), taken out after being placed for 1 week and 2 weeks respectively, and the sample content and related substances under various conditions were detected by HPLC; according to the same method as above, samples were respectively weighed and placed under a corresponding influencing factor and accelerated condition, and were taken out after being placed for 2 weeks for observing the appearance and XRPD characterization of each sample, and the physical stability of each crystal form was examined, and the test methods are detailed in table 14 and table 15; at the same time, 2 samples of the crystal forms A, B, and C of the compound as shown in formula I were respectively weighed accurately into 20 mL colorless transparent glass bottles and covered tightly, placed in a −20° C. refrigerator, and taken out as a standard for HPLC analysis at 2 weeks, and the test results are detailed in table 16 and table 17.
# [4] = Solid-state stability: appearance and crystal form (XRPD); format: physicochemical; conditions: for physical stability: four storage conditions
# Procedure: as §1
# PD-1 and PD-L1 = PD-1 and PD-L1 (Homo sapiens, UniProt Q9NZQ7); conditions: as disclosed in patent CN109988144A; cited from earlier work
# [5] = Acceleration (40° C./75% RH), 1 week
# [6] = Acceleration (40° C./75% RH), 2 weeks
# [7] = High humidity (92.5% RH), 1 week
# [8] = High humidity (92.5% RH), 2 weeks
# [9] = High temperature (60° C.), 1 week
# [10] = High temperature (60° C.), 2 weeks
# [11] = illumination (4500 LuX), 1 week
# [12] = illumination (4500 LuX), 2 weeks
# [13] = Illumination (4500 Lux), 2 weeks
# [14] = high temperature, high humidity, illumination and acceleration, 2 weeks (conclusion)
# Chain of PD-1 and PD-L1 (Q9NZQ7 19-238 limits assumed): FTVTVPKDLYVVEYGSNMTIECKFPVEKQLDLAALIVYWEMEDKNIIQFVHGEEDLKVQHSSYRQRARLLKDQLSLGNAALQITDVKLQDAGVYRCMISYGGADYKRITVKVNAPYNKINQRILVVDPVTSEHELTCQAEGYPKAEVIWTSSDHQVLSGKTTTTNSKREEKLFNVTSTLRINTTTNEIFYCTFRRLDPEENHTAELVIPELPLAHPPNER
structure (smiles),measurement,setting,value
Cc1c(/C=C/c2cc(CN[C@@](C)(CO)C(=O)O)ccc2C(F)(F)F)cccc1-c1ccccc1 [Crystal form B],hygroscopicity,[1],hygroscopic
same,weight gain,[1]; from 0% RH to 95% RH,7.235%
same,Solubility,"[2]; FaSSIF (rows r12-r14), 0.5 hours, listed as B",13.3 µg/mL
same,Solubility,"[2]; FaSSIF (rows r12-r14), 2 hours, listed as B",8.8 µg/mL
same,Solubility,"[2]; FaSSIF (rows r12-r14), 24 hours, listed as B",8.6 µg/mL
same,Solubility,"[2]; FaSSIF as printed (second set, rows r15-r17), 0.5 hours, listed as B",176.4 µg/mL
same,Solubility,"[2]; FaSSIF as printed (second set, rows r15-r17), 2 hours, listed as B",175.9 µg/mL
same,Solubility,"[2]; FaSSIF as printed (second set, rows r15-r17), 24 hours, listed as B",179.7 µg/mL
same,Solubility,"[2]; SGF, 2 hours",0.1 µg/mL
same,Solubility,"[2]; SGF, 24 hours",0.2 µg/mL
same,Solubility,"[2]; Water, 0.5 hours",2.5 µg/mL
same,Solubility,"[2]; Water, 2 hours",7.5 µg/mL
same,Solubility,"[2]; Water, 24 hours",1.2 µg/mL
same,solubility at 0.5 h,"[2]; simulated gastric fluid (SGF), simulated gastric fluid, SGF, 0.5 hours",0.5 µg/mL
same,Content,[3]; [5],103.22%
same,Total related substances,[3]; [5],0.00%
same,Content,[3]; [6],101.60%
same,Total related substances,[3]; [6],0.00%
same,Total related substances,"[3]; Control, −20° C., 2 weeks",0.00%
same,Content,[3]; [7],100.09%
same,Total related substances,[3]; [7],0.00%
same,Content,[3]; [8],100.83%
same,Total related substances,[3]; [8],0.00%
same,Content,[3]; [9],100.70%
same,Total related substances,[3]; [9],0.00%
same,Content,[3]; [10],100.15%
same,Total related substances,[3]; [10],0.00%
same,Content,[3]; [11],100.02%
same,Total related substances,[3]; [11],0.39%
same,Content,[3]; [12],99.69%
same,Total related substances,[3]; [12],1.28%
same,Appearance,[4]; [6],Off-white
same,Crystal form (XRPD) after storage,[4]; [6],Crystal form B
same,Appearance,"[4]; Control, −20° C., 2 weeks",Off-white
same,Crystal form (XRPD) after storage,"[4]; Control, −20° C., 2 weeks, listed as Crystal form B-Control",Crystal form B
same,Appearance,[4]; [8],Off-white
same,Crystal form (XRPD) after storage,[4]; [8],Crystal form B
same,Appearance,[4]; [10],Off-white
same,Crystal form (XRPD) after storage,[4]; [10],Mixed crystal form
same,Crystal form (XRPD) after storage,"[4]; High temperature (60° C.), 2 weeks, listed as crystal form B",converted into other crystal form
same,Appearance,[4]; [13],Off-white
same,Crystal form (XRPD) after storage,[4]; [13],Crystal form B
same,physical stability,[4]; 2 weeks (conclusion),poor
same,Appearance,[4]; [14],off-white
Cc1c(/C=C/c2cc(CN[C@@](C)(CO)C(=O)O)ccc2C(F)(F)F)cccc1-c1ccccc1 [Compound I],inhibitory effect on the combination of PD-1 and PD-L1,PD-1 and PD-L1,strong inhibitory effect
Cc1c(/C=C/c2cc(CN[C@@](C)(CO)C(=O)O)ccc2C(F)(F)F)cccc1-c1ccccc1 [Crystal form A],hygroscopic weight gain,[1]; 80% RH,0.310%
same,hygroscopic weight gain,[1]; 95% RH,0.409%
same,hygroscopicity,[1],slightly hygroscopic
same,solubility at 0.5 h,"[2]; FaSSIF as printed (second set of rows), fessif, FaSSIF, 0.5 hours",183 µg/mL
same,solubility at 2 h,"[2]; FaSSIF as printed (second set of rows), fessif, FaSSIF, 2 hours",177 µg/mL
same,solubility at 24 h,"[2]; FaSSIF as printed (second set of rows), fessif, FaSSIF, 24 hours",170 µg/mL
same,Solubility,"[2]; FaSSIF, 2 hours",2.0 µg/mL
same,Solubility,"[2]; SGF, 0.5 hours",0.4 µg/mL
same,Solubility,"[2]; SGF, 2 hours",0.3 µg/mL
same,Solubility,"[2]; SGF, 24 hours",0.1 µg/mL
same,Solubility,"[2]; Water, 24 hours",6.1 µg/mL
same,solubility at 0.5 h,"[2]; fasted-state simulated intestinal fluid (FaSSIF), fassif, 0.5 hours",8.7 µg/mL
same,solubility at 24 h,"[2]; fasted-state simulated intestinal fluid (FaSSIF), fassif, 24 hours",4.3 µg/mL
same,solubility at 0.5 h,"[2]; water, 0.5 hours",1.5 µg/mL
same,solubility at 2 h,"[2]; water, 2 hours",6 µg/mL
same,Content,[3]; [5],104.34%
same,Total related substances,[3]; [5],0.04%
same,Content,[3]; [6],104.13%
same,Total related substances,[3]; [6],0.03%
same,Total related substances,"[3]; Control, −20° C., 2 weeks",0.00%
same,Content,[3]; [7],104.75%
same,Total related substances,[3]; [7],0.10%
same,Content,[3]; [8],104.25%
same,Total related substances,[3]; [8],0.12%
same,Content,[3]; [9],100.69%
same,Total related substances,[3]; [9],0.02%
same,Content,[3]; [10],104.03%
same,Total related substances,[3]; [10],0.03%
same,Content,[3]; [11],96.10%
same,Total related substances,[3]; [11],3.94%
same,Content,[3]; [12],88.50%
same,Total related substances,[3]; [12],11.18%
same,Appearance,[4]; [6],Off-white
same,Crystal form (XRPD) after storage,[4]; [6],Crystal form A
same,Appearance,"[4]; Control, −20° C., 2 weeks",Off-white
same,Crystal form (XRPD) after storage,"[4]; Control, −20° C., 2 weeks, listed as Crystal form A-Control",Crystal form A
same,Appearance,[4]; [8],Off-white
same,Crystal form (XRPD) after storage,[4]; [8],Crystal form A
same,Appearance,[4]; [10],Off-white
same,Crystal form (XRPD) after storage,[4]; [10],Crystal form A
same,Appearance,[4]; [13],Off-white
same,Crystal form (XRPD) after storage,[4]; [13],Crystal form A
same,physical stability,[4]; 2 weeks (conclusion),good
same,Appearance,[4]; [14],off-white
